Measurements taken from US20120220662A1, “PHYTOCEUTICAL COMPOSITIONS FOR PETS” (BIOKAB, S.A. DE C.V., priority 2009, published 2012).

Test: Accelerated Oxidization Tests (anti-oxidizing ability, peroxides)
Conditions: 200 ppm (extract: Nejayote 1000 ppm + 200 ppm Pure Ferulic Acid)
Experimental: The tests of anti-oxidizing ability of the compositions in examples 1, 2 and 3. Said anti-oxidizing ability is the ability which conveys, to a considerable extent, the phytoceutical properties of our composition.
The determination was performed by AOAC Official Method 965.33/(AOCS Method Cd 8-53) 2000 AOAC International.

| Structure (SMILES) | Accelerated Oxidization Tests (peroxides) (Time 0 Hs) | Accelerated Oxidization Tests (peroxides) (Time 4 Hs) | Accelerated Oxidization Tests (peroxides) (Time 8 Hs) | Accelerated Oxidization Tests (peroxides) (Time 16 Hs) | Accelerated Oxidization Tests (peroxides) (Time 24 Hs) | Accelerated Oxidization Tests (peroxides) (Time 32 Hs) | Accelerated Oxidization Tests (peroxides) (Time 40 Hs) | Accelerated Oxidization Tests (peroxides) (Time 48 Hs) | Accelerated Oxidization Tests (peroxides) (Time 56 Hs) | Accelerated Oxidization Tests (peroxides) (Time 64 Hs) | Accelerated Oxidization Tests (peroxides) (Time 72 Hs) | Accelerated Oxidization Tests (peroxides) (Time 80 Hs) | Accelerated Oxidization Tests (peroxides) (Time 88 Hs) | Accelerated Oxidization Tests (peroxides) (Time 96 Hs) | Accelerated Oxidization Tests (peroxides) (Time 104 Hs) | Accelerated Oxidization Tests (peroxides) (Time 112 Hs) | Accelerated Oxidization Tests (peroxides) (Time 120 Hs) | Accelerated Oxidization Tests (peroxides) (Time 128 Hs) |
| --- | --- | --- | --- | --- | --- | --- | --- | --- | --- | --- | --- | --- | --- | --- | --- | --- | --- | --- |
| COc1cc(/C=C/C(=O)O)ccc1O [Pure Ferulic Acid, ferulic acid] | 0.00 Meq/Kg | 0.00 Meq/Kg | 0.00 Meq/Kg | 0.00 Meq/Kg | 0.00 Meq/Kg | 3.17 Meq/Kg | 4.19 Meq/Kg | 7.25 Meq/Kg | 13.61 Meq/Kg | 20.18 Meq/Kg | 21.12 Meq/Kg | 24.19 Meq/Kg | 31.16 Meq/Kg | 36.19 Meq/Kg | 51.14 Meq/Kg | 31.05 Meq/Kg | 21.05 Meq/Kg | 0.00 Meq/Kg |
| COc1ccc(O)c(C(C)(C)C)c1 [pure BHA, Butylated Hydroxy Anisole] | 0.00 Meq/Kg | 0.00 Meq/Kg | 0.00 Meq/Kg | 0.00 Meq/Kg | 0.00 Meq/Kg | 0.00 Meq/Kg | 0.00 Meq/Kg | 0.60 Meq/Kg | 0.68 Meq/Kg | 1.09 Meq/Kg | 0.91 Meq/Kg | 1.89 Meq/Kg | 8.03 Meq/Kg | 41.94 Meq/Kg | 45.11 Meq/Kg | 36.12 Meq/Kg | 24.10 Meq/Kg | 6.16 Meq/Kg |
